Experimental data: patent US11007206B2, “Cyclic boronic acid ester derivatives and therapeutic uses thereof” (Melinta Subsidiary Corp., priority 2012, dated 2021)
Values joined by “and” are separate entries in the source; they are usually repeats but may differ in a detail not shown here. Equal entries are not always repeated.

Key:
Type in all cases: in vivo
[1] = Plasma pharmacokinetics of Compound I after single intraperitoneal dose in Swiss-Webster mice (Example 1); settings: mouse plasma, individual animals
Experimental: Example 1 provides a summary of three pharmacokinetic studies Compound I conducted in Swiss-webster mice. The pharmacokinetics of 5 mg/kg, 15 mg/kg and 50 mg/kg of Compound I via the intraperitoneal route were discussed.
Compound I was prepared using the method described in the U.S. Publication 2012/0040932 A1. 100 mg of Compound I was dissolved in 30% 1N NaOH to ˜pH 5.0 as a stock solution. Compound I was further diluted in 0.9% saline to achieve target concentrations.
The specifications for animals used on this study were as follows: • Species: Mouse • Strain: CFW (Swiss) • Gender: Female • Source: Harlan Laboratories (Livermore, Calif.) • Number of Animals: 33 for each dose • Body Weight Range: 18-22 g at the start of the study
After acclimation, mice were administered a single intraperitoneal dose of Compound I at 5, 15, and 50 mg/kg. Groups of three mice were sacrificed at 0.08, 0.16, 0.25, 0.33, 0.5, 0.75, 1.0, 2.0, 3.0, and 4.0 h after dosing. Blood samples (one sample per animal) were collected by cardiac puncture in a heparin containing tube. Blood samples were centrifuged within 5 min of collection at 12000 g for 5 min to obtain plasma. The plasma samples were stored on −80° C. until analyzed.
Compound I standard curves were prepared in plasma from 0.1 to 100 μg/mL. 50 μl aliquots of sample were placed in 1.5 mL microcentrifuge tubes. 20 μl of Compound II (10 μg/mL) was added as internal standard to each sample or standard. 20 μl of 30% trichloroacetic acid was then added to each sample or standard. The samples were mixed using a vortex mixer centrifuged for 10 min at 15,000 RPM using a tabletop centrifuge. The supernatant (approx. […]) was removed and added to 100 μl of water in a 96-well plate. The samples were mixed again using a vortex mixer. 10 μl of each sample was injected onto an HPLC-MS for quantification.
The HPLC-MS conditions for plasma analysis are as follows: • Column: Phenomenex Fusion-RP or equivalent reversed-phase column, 5 um, 50×2 mm. • Flow rate: 0.6 mL/min. • Mobile phase A: 0.1% formic acid in water. • Mobile phase B: 0.1% formic acid in acetonitrile. • Gradient: 5-60% B in 1.5 min. • Mass spectrometer: Negative ion mode with electrospray ionization. • MS/MS: Compound I-Q1-m/e=296, Q3-m/e=234. • Compound II-Q1-m/e=331, Q3-m/e=201.
Plasma concentrations were fit using a one compartment IV infusion model (WinNonlinVersion 5.3, Pharsight Corp, and Mountain View, Calif.).

[2] = Single-dose pharmacokinetics of Compound I, intravenous 30-minute infusion in Sprague-Dawley rats (Example 5); settings: Rat; for AUC / Cmax / half-life: Sprague-Dawley, in vivo
Experimental: (§1) Example 5 provides the single-dose pharmacokinetic studies of Compound I inpreclinical species, including intraperitoneal administration to Swiss-Webster mice and intravaneous administration to Sprague-Dawley rats, Beagle dogs, and Cynomologus monkeys.
(§2) Intravaneous doses of Compound I were administered as 30-minute infusions. The pharmacokinetics of Compound I were also studied with coadministration of the carbapenem, Biapenem. Compound I concentrations were determined using an LC-MS detection method.

[3] = Single-dose pharmacokinetics of Compound I, intravenous 30-minute infusion in Beagle dogs (Example 5); settings: Dog; for AUC / Cmax / half-life: Beagle, in vivo
Experimental: as §1, §2

In the case of `O=C(O)C[C@@H]1CC[C@H](NC(=O)Cc2cccs2)B(O)O1` [Compound I], the “Calc. Conc. (plasma concentration)” value ([1]; 15 mg/kg intraperitoneal, samples m.p. 2.x = 2nd time point (0.16 h), 15 mg/kg) is reported as 8.58 µg/mL, the “Calc. Conc. (plasma concentration)” value ([1]; 15 mg/kg intraperitoneal, samples m.p. 3.x = 3rd time point (0.25 h), 15 mg/kg) is reported as 9.53 µg/mL and 5.59 µg/mL and 14.3 µg/mL and the “Calc. Conc. (plasma concentration)” value ([1]; 15 mg/kg intraperitoneal, samples m.p. 4.x = 4th time point (0.33 h), 15 mg/kg) is reported as 5.6 µg/mL and 12.3 µg/mL and 4.44 µg/mL. For the same compound, the “Calc. Conc. (plasma concentration)” value ([1]; 15 mg/kg intraperitoneal, samples m.p. 5.x = 5th time point (0.5 h), 15 mg/kg) was 4.07 µg/mL and 3.52 µg/mL and 7.05 µg/mL, the “Calc. Conc. (plasma concentration)” value ([1]; 15 mg/kg intraperitoneal, samples m.p. 6.x = 6th time point (0.75 h), 15 mg/kg) was 0.0261 µg/mL and 3.72 µg/mL and 2.99 µg/mL and the “Calc. Conc. (plasma concentration)” value ([1]; 15 mg/kg intraperitoneal, samples m.p. 7.x = 7th time point (1.0 h), 15 mg/kg) was 0.534 µg/mL and 2.28 µg/mL and 1.61 µg/mL. For the same compound, the “Calc. Conc. (plasma concentration)” value ([1]; 15 mg/kg intraperitoneal, samples m.p. 8.x = 8th time point (2.0 h), 15 mg/kg) was 0.145 µg/mL and 0.0926 µg/mL, the “Calc. Conc. (plasma concentration)” value ([1]; 15 mg/kg intraperitoneal, samples m.p. 9.x = 9th time point (3.0 h), 15 mg/kg) was <0 ug/mL (2×) and 0.0178 ug/mL and the “Calc. Conc. (plasma concentration)” value ([1]; 50 mg/kg intraperitoneal, samples m.p. 1.x = 1st time point (0.08 h), 50 mg/kg) was 39.4 µg/mL and 26.6 µg/mL. For the same compound, the “Calc. Conc. (plasma concentration)” value ([1]; 50 mg/kg intraperitoneal, samples m.p. 2.x = 2nd time point (0.16 h), 5x dil., 50 mg/kg) was 64.7 µg/mL and 57.7 µg/mL and 58.9 µg/mL, the “Calc. Conc. (plasma concentration)” value ([1]; 50 mg/kg intraperitoneal, samples m.p. 3.x = 3rd time point (0.25 h), 5x dil., 50 mg/kg) was 56.8 µg/mL and 61.7 µg/mL and 64.2 µg/mL and the “Calc. Conc. (plasma concentration)” value ([1]; 50 mg/kg intraperitoneal, samples m.p. 4.x = 4th time point (0.33 h), 50 mg/kg) was 42.1 µg/mL and 43.6 µg/mL and 135 µg/mL. The “Calc. Conc. (plasma concentration)” value ([1]; 50 mg/kg intraperitoneal, samples m.p. 5.x = 5th time point (0.5 h), 50 mg/kg) was 34.7 µg/mL and 27.0 µg/mL and 4.06 µg/mL, the “Calc. Conc. (plasma concentration)” value ([1]; 50 mg/kg intraperitoneal, samples m.p. 6.x = 6th time point (0.75 h), 50 mg/kg) was 11.4 µg/mL and 15.0 µg/mL and the “Calc. Conc. (plasma concentration)” value ([1]; 50 mg/kg intraperitoneal, samples m.p. 7.x = 7th time point (1.0 h), 50 mg/kg) was 9.26 µg/mL and 2.33 µg/mL and 1.40 µg/mL. For the same compound, the “Calc. Conc. (plasma concentration)” value ([1]; 50 mg/kg intraperitoneal, samples m.p. 8.x = 8th time point (2.0 h), 50 mg/kg) was 0.555 µg/mL and 1.30 µg/mL and 0.582 µg/mL, the “Calc. Conc. (plasma concentration)” value ([1]; 50 mg/kg intraperitoneal, samples m.p. 9.x = 9th time point (3.0 h), 50 mg/kg) was 0.120 µg/mL and 0.105 µg/mL and the “Calc. Conc. (plasma concentration)” value ([1]; 50 mg/kg intraperitoneal, samples m.p. 10.x = 10th time point (4.0 h), 50 mg/kg) was 0.0471 µg/mL and 0.143 µg/mL and 0.199 µg/mL. For the same compound, the “CL or CL/F” value ([2]; 20 mg/kg IV) was 28.3 ± 1 mL/min/kg, the AUC ([2]; 20 mg/kg IV) was 12200 ± 430 ng·h/mL and the Cmax ([2]; 20 mg/kg IV) was 19800 ± 840 ng/mL. The half-life ([2]; 20 mg/kg IV) was 1.6 ± 0.17 h, the AUC ([2]; 50 mg/kg IV) was 28200 ± 2000 ng·h/mL and the Cmax ([2]; 50 mg/kg IV) was 45900 ± 2000 ng/mL. The half-life ([2]; 50 mg/kg IV) was 4.5 ± 1.34 h, the AUC ([3]; 2 mg/kg IV) was 6130 ± 650 ng·h/mL and the Cmax ([3]; 2 mg/kg IV) was 6490 ± 310 ng/mL. For the same compound, the half-life ([3]; 2 mg/kg IV) was 0.66 ± 0.06 h, the AUC ([3]; 6 mg/kg IV) was 18400 ± 2360 ng·h/mL and the Cmax ([3]; 6 mg/kg IV) was 19600 ± 1420 ng/mL. It also gave a half-life ([3]; 6 mg/kg IV) of 0.71 ± 0.09 h, an AUC ([3]; 20 mg/kg IV) of 73600 ± 5380 ng·h/mL and a Cmax ([3]; 20 mg/kg IV) of 66800 ± 6160 ng/mL. The half-life ([3]; 20 mg/kg IV) was 1.53 ± 0.73 h, the “CL or CL/F” value ([3]; 2 mg/kg IV) was 5.5 ± 0.5 mL/min/kg and the “CL or CL/F” value ([3]; 6 mg/kg IV) was 5.5 ± 0.67 mL/min/kg. For the same compound, the “CL or CL/F” value ([3]; 20 mg/kg IV) was 4.5 ± 0.33 mL/min/kg.
